According to patent US5250546A, “Amino-alcohol derivatives and processes for their preparation” (Nippon Chemiphar Co., Ltd., priority 1984, dated 1993):
Where a name gives a salt, the structure may show the parent alone. Read-outs that look alike come from different tables or passages of the source.

How the values were obtained:
[1] = tested on: anemic decerebrate rigidity (Wistar male rats); experiment: Effects on anemic decerebrate rigidity (EMG of M. triceps brachii); type: in vivo; settings: Rattus norvegicus, iv, 10 min, read-out: Suppression rate (rigidity, EMG pulse area)
Description: An anemic decerebrate rigidity sample was prepared principally in accordance with the procedure of Fukuda et al. [Japan. […] Wistar male rats (body weight: 270 to 350 g) were held on their backs and incised at their cervices under etherization. After the trachea and common carotid arteries were exposed, the trachea was cannulated and the bilateral common carotid arteries and esophagus were then double-ligated and cut. Thereafter, its occipital bone was exposed through which a circular hole was bored to double-ligate the centrally extending basilar artery. As each rat started coming out of anesthetization, its front limbs became rigid. Measurement was conducted by recording electromyographic (EMG) response from the muscle of the forelimb (M. triceps brachii) of the rat in the rigid state. The EMG pulses were converted to accumulated values every 10 seconds and recorded as a histogram on a recorder.
The effect of each test compound on the rigidity was evaluated in terms of the suppression rate. This rate was calculated first by determining the area of a decreased EMG pulse part on the histogram upon passage of 10 minutes after administration of a physiological saline solution of each test compound (3 mg/kg) through the femoral vein and then in accordance with the following equation.
A: EMG pulse area when no test compound was administered (control).

[2] = Acute toxicity, up-and-down method; settings: mouse, in vivo; iv (caudal vein), ddN male mice
Description: Using ddN male mice, the acute toxicity level of each test compound was determined in accordance with an up-and-down method. Some of the test compounds used were dissolved in physiological saline and administered through the caudal vein.

[3] = tested on: glutamic acid at neuromuscular junctions of crayfish (opener muscles of the first walking legs); experiment: Blocking effects against glutamic acid at neuromuscular junctions of crayfish (L-glutamic acid-induced depolarization); type: cell-based; settings: 5 min; suppression rate of depolarization by L-glutamic acid (10^-4 M); 5-minute pretreatment with test compound 2×10^-4 M
Description: The opener muscles of the first walking legs of crayfish were used as experimental materials. The neuromuscular sample was held in a bath in which a physiological solution [composition (mM): NaCl (195), CaCl2 (18), KCl (5.4), tris-maleate buffer (pH 7.5; 10), glucose (11)] for use with the crayfish was perfused at room temperature and at a constant flow rate. A glass micro-electrode filled with a 3M-KCl solution was inserted in a central part of the muscle fiber to intracellularly record changes in the potential of the muscular cell membrane.
The blocking effect of each test compound against glutamic acid was evaluated in terms of the suppression rate to depolarization which was induced by bath-applying L-glutamic acid (10^-4 M) in a 5-minute pretreatment with a solution of the test compound (2×10^-4 M).

[4] = 3 mg/kg through the femoral vein, 10 minutes after administration

Row | Structure (SMILES) | inhibition in vivo at 3 mg/kg [1] [%] | LD50 [2] [mg/kg] | inhibition in vivo at 3 mg/kg [1, 4] [%] | inhibition at 200 µM [3] [%]
1 | C[C@H](NCCN1CCOCC1)[C@H](O)c1ccccc1 (racemic) [Comparative compound 3, (1RS,2SR)-2-(2-morpholinoethylamino)-1-phenylpropan-1-ol dihydrochloride, reference compound] | 1 | – | – | –
2 | CC(C)CC[C@H](NCCCN1CCCCCC1)[C@H](O)c1ccccc1.Cl.Cl (racemic) [Compound 45, (1RS,2SR)-5-methyl-2-[3-(perhydroazepin-1-yl)propylamino]-1-phenylhexan-1-ol dihydrochloride] | – | 12.8 | 90.5 | 100
3 | CC(C)C[C@@H](NCCCN1CCCCC1)[C@H](O)c1ccc(Cl)cc1 (racemic) [Compound 58, (1RS,2RS)-1-(4-chlorophenyl)-4-methyl-2-(3-piperidinopropylamino)pentan-1-ol dihydrochloride] | – | – | – | 97
4 | CC(C)C[C@H](NCCCN1CCOCC1)[C@H](O)c1ccccc1 (racemic) [Compound 25, (1RS,2SR)-4-methyl-2-(3-morpholinopropylamino)-1-phenylpentan-1-ol dihydrochloride] | – | – | – | 90
5 | CC(C)C[C@@H](NCCCN1CCCCC1)[C@H](O)c1ccccc1 [Compound 20, (1R,2R)-4-methyl-1-phenyl-2-(3-piperidinopropylamino)pentan-1-ol dihydrochloride] | – | – | – | 98
6 | C[C@H](NCCN(C)C)[C@H](O)c1ccccc1 (racemic) [Comparative compound 4, (1RS,2SR)-2-(2-dimethylaminoethylamino)-1-phenylpropan-1-ol dihydrochloride, reference compound] | 1.1 | – | – | –
7 | CC(C)C[C@@H](NCCCN1CCCCC1)[C@@H](O)c1ccccc1 [Compound 18, (1S,2R)-4-methyl-1-phenyl-2-(3-piperidinopropylamino)pentan-1-ol dihydrochloride] | – | – | – | 97
8 | Cc1ccc(C(=O)C(C)CN2CCCCC2)cc1 (stereo not shown) [Comparative compound 5, tolperisone hydrochloride, reference compound] | – | – | 4.8 | –
9 | Cc1ccccc1[C@@H](O)[C@H](CC(C)C)NCCCN1CCCCC1 (racemic) [Compound 47, (1RS,2SR)-4-methyl-1-(2-methylphenyl)-2-(3-piperidinopropylamino)pentan-1-ol dihydrochloride] | – | – | – | 100
10 | CCCCC[C@@H](NCCCN1CCCCC1)[C@H](O)c1ccccc1 (racemic) [Compound 6, (1RS,2RS)-1-phenyl-2-(3-piperidinopropylamino)heptan-1-ol dihydrochloride] | – | – | – | 100
11 | CC(C)C[C@H](NCCCN1CCCC1)[C@H](O)c1ccccc1 (racemic) [Compound 23, (1RS,2SR)-4-methyl-1-phenyl-2-(3-pyrrolidinopropylamino)pentan-1-ol dihydrochloride] | – | – | – | 97
12 | CCCCCCCC[C@H](NCCCN1CCCCC1)[C@H](O)c1ccccc1 (racemic) [Compound 11, (1RS,2SR)-1-phenyl-2-(3-piperidinopropylamino)decan-1-ol dihydrochloride] | – | – | – | 100
13 | CC(C)CC[C@H](NCCN1CCCCC1)[C@H](O)c1ccccc1.Cl.Cl (racemic) [Compound 41, (1RS,2SR)-5-methyl-1-phenyl-2-(2-piperidinoethylamino)hexan-1-ol dihydrochloride] | – | 29.5 | 23.5 | 94
14 | CC(C)C[C@H](NCCN1CCCC1)[C@H](O)c1ccccc1 (racemic) [Compound 31, (1RS,2SR)-4-methyl-1-phenyl-2-(2-pyrrolidinoethylamino)pentan-1-ol dihydrochloride] | – | – | – | 91
15 | CCCCCC[C@H](NCCCN1CCCCC1)[C@H](O)c1ccccc1 (racemic) [Compound 7, (1RS,2SR)-1-phenyl-2-(3-piperidinopropylamino)octan-1-ol dihydrochloride] | – | – | – | 98
16 | CCCC[C@H](NCCCN1CCCCC1)[C@H](O)c1ccccc1.Cl.Cl (racemic) [Compound 3, (1RS,2SR)-1-phenyl-2-(3-piperidinopropylamino)hexan-1-ol dihydrochloride] | – | 19.2 | 17.5 | 99
17 | CC(C)C[C@H](NCCCN1CCCCC1)[C@H](O)c1ccc(Cl)cc1 (racemic) [Compound 57, (1RS,2SR)-1-(4-chlorophenyl)-4-methyl-2-(3-piperidinopropylamino)pentan-1-ol dihydrochloride] | – | – | – | 99
18 | CO[C@H](c1ccccc1)[C@H](CCC(C)C)NCCCN1CCCCC1 (racemic) [Compound 59, (1RS,2SR)-5-methyl-1-phenyl-2-(3-piperidinopropylamino)hexan-1-ol methylether dihydrochloride] | – | – | – | 97

Row | Structure (SMILES) | inhibition in vivo at 3 mg/kg [1] [%] | LD50 [2] [mg/kg] | inhibition in vivo at 3 mg/kg [1, 4] [%] | inhibition at 200 µM [3] [%]
19 | C[C@H](NCCN1CCCC1)[C@H](O)c1ccccc1 (racemic) [Comparative compound 2, (1RS,2SR)-1-phenyl-2-(2-pyrrolidinoethylamino)propan-1-ol dihydrochloride, reference compound] | 2.2 | – | – | –
20 | CCN(CCCN1CCCCC1)[C@@H](CCC(C)C)[C@H](O)c1ccccc1 (racemic) [Compound 65, (1RS,2SR)-2-[ethyl-(3-piperidinopropyl)amino]-5-methyl-1-phenylhexan-1-ol dihydrochloride] | – | – | – | 99
21 | Cc1ccc([C@@H](O)[C@@H](CC(C)C)NCCCN2CCCCC2)cc1 (relative stereo) [Compound 52, (1RS,2RS)-4-methyl-1-(4-methylphenyl)-2-(3-piperidinopropylamino)pentan-1-ol dihyrochloride] | – | – | – | 93
22 | COc1ccc([C@@H](O)[C@H](CC(C)C)NCCCN2CCCCC2)cc1 (racemic) [Compound 53, (1RS,2SR)-1-(4-methoxyphenyl)-4-methyl-2-(3-piperidinopropylamino)pentan-1-ol dihydrochloride] | – | – | – | 91
23 | Cc1cccc([C@@H](O)[C@H](CC(C)C)NCCCN2CCCCC2)c1 (racemic) [Compound 49, (1RS,2SR)-4-methyl-1-(3-methylphenyl)-2-(3-piperidinopropylamino)pentan-1-ol dihydrochloride] | – | – | – | 100
24 | CC(C)CC[C@H](NCCN1CCCC1)[C@H](O)c1ccccc1.Cl.Cl (racemic) [Compound 43, (1RS,2SR)-5-methyl-1-phenyl-2-(2-pyrrolidinoethylamino)hexan-1-ol dihydrochloride] | – | 31.9 | 16.1 | 95
25 | CC(C)CC[C@H](NCCCN(C)C)[C@H](O)c1ccccc1 (racemic) [Compound 39, (1RS,2SR)-2-(3-dimethylaminopropylamino)-5-methyl-1-phenylhexan-1-ol dihydrochloride] | – | – | – | 100
26 | CC(C)CC[C@@H](NCCCN1CCCCC1)[C@H](O)c1ccccc1.Cl.Cl (racemic) [Compound 22, (1RS,2RS)-5-methyl-1-phenyl-2-(3-piperidinopropylamino)hexan-1-ol dihydrochloride] | – | 19 | 42.3 | 100
27 | CC(C)C[C@H](NCCCN1CCCCC1)[C@@H](O)c1ccccc1.Cl.Cl [Compound 19, (1S,2S)-4-methyl-1-phenyl-2-(3-piperidinopropylamino)pentan-1-ol dihydrochloride] | – | 28.4 | – | 100
28 | CC(C)C[C@H](NCCCN(C)C)[C@H](O)c1ccccc1 (racemic) [Compound 27, (1RS,2SR)-2-(3-dimethylaminopropylamino)-4-methyl-1-phenylpentan-1-ol dihydrochloride] | – | – | – | 95
29 | CC(C)CC[C@H](NCCCN1CCOCC1)[C@H](O)c1ccccc1 (racemic) [Compound 37, (1RS,2SR)-5-methyl-2-(3-morpholinopropylamino)-1-phenylhexan-1-ol dihydrochloride] | – | – | – | 99
30 | Cc1ccc([C@@H](O)[C@H](CC(C)C)NCCCN2CCCCC2)cc1 (racemic) [Compound 51, (1RS,2SR)-4-methyl-1-(4-methylphenyl)-2-(3-piperidinopropylamino)pentan-1-ol dihydrochloride] | – | – | – | 100
31 | CC(C)C[C@H](NCCCN1CCCCC1)[C@H](O)c1ccccc1.Cl.Cl [Compound 17, (1R,2S)-4-methyl-1-phenyl-2-(3-piperidinopropylamino)pentan-1-ol dihydrochloride] | – | 15.4 | – | 100
32 | CC(C)C[C@H](NCCCN1CCCCC1)[C@H](O)c1ccccc1.Cl.Cl (racemic) [Compound 15, (1RS,2SR)-4-methyl-1-phenyl-2-(3-piperidinopropylamino)pentan-1-ol dihydrochloride] | – | 23.6 | – | 100
33 | CC(C)C[C@H](NCCCN1CCCCC1)[C@H](O)c1ccc(F)cc1 (racemic) [Compound 55, (1RS,2SR)-1-(4-fluorophenyl)-4-methyl-2-(3-piperidinopropylamino)pentan-1-ol dihydrochloride] | – | – | – | 99
34 | CC(C)C[C@@H](NCCCN1CCCCC1)[C@H](O)c1ccccc1.Cl.Cl (racemic) [Compound 16, (1RS,2RS)-4-methyl-1-phenyl-2-(3-piperidinopropylamino)pentan-1-ol dihydrochloride] | – | 28.8 | – | 95
35 | CC(C)C[C@H](NCCN1CCCCC1)[C@H](O)c1ccccc1 (racemic) [Compound 29, (1RS,2SR)-4-methyl-1-phenyl-2-(2-piperidinoethylamino)pentan-1-ol dihydrochloride] | – | – | – | 93
